Assay results from patent publication US20050266515A1, “Glyceraldehyde 3-phosphate dehydrogenase-S (GAPDHS), a glycolytic anzyme expressed only in male germ cells, is a target for male contraception” (The University of North Carolina at Chapel Hill, priority 2002, published 2005).
Where two headings read alike, the source gives them in different places. One block for each compound: values may come before it.

Legend:
Assay type in all cases: biochemical
[1] = target: T1, truncated form of human GAPDHS (Mus musculus, UniProt Q64467); experiment: Inhibition of dehydrogenase activity of recombinant truncated GAPDHS (NADH accumulation at 340 nm);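 note: recombinant enzyme (1 µg) in glycine–phosphate–EDTA buffer pH 8.9, inhibitors tested from 1 µM to 3 mM, activity relative to DMSO-only controls taken as 100%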
T1 construct: tGapdhs, amino acids 106-438; made in house; host or cells: E. coli K-12 strain DS112 (gapA-deficient)
T1 sequence (Q64467 108-440): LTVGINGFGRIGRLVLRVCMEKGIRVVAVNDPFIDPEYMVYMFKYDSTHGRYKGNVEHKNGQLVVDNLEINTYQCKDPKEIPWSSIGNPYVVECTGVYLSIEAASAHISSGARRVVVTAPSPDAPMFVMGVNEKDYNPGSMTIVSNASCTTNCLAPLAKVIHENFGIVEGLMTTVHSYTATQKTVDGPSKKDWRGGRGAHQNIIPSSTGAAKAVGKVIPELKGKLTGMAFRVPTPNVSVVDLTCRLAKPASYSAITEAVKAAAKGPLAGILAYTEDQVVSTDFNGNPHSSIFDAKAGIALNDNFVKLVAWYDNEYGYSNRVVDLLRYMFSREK

[2] = system: truncated form of human GAPDHS; experiment: as above; conditions: comparison of IC50 values of Tables 7, 9 and 11
recombinant human GAPDH = target: T2, recombinant human GAPDH (Mus musculus, UniProt P16858); experiment: Inhibition of dehydrogenase activity of recombinant somatic GAPDH (NADH accumulation at 340 nm); conditions: 1 hour preincubation at 4° C., 0.5 mM NAD, 0.5 mM glyceraldehyde-3-phosphate
T2 construct: made in house; host or cells: E. coli K-12 strain DS112 (gapA-deficient)
T2 sequence (P16858 whole entry): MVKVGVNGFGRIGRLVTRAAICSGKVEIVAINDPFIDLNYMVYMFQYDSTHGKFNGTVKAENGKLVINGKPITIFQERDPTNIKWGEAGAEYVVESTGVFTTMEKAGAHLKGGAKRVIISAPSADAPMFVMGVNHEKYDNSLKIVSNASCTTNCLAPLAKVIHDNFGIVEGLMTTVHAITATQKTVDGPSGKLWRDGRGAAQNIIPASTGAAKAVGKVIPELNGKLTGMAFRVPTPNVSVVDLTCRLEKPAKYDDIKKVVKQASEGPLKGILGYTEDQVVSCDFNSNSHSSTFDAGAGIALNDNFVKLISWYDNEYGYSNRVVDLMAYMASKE
Excerpt: In subsequent studies to test inhibitors identified in computer docking studies, recombinant mouse Gapdh and the truncated form of Gapdhs (tGapdhs, amino acids 106-438) were expressed in DS112 gapA-deficient E. coli strain K-12 (available from the Yale University E. coli Genetics Stock Center, New Haven, Conn., United States of America). The truncated Gapdhs lacks the proline-rich N-terminus, but contains all the amino acids required for enzyme activity. The recombinant proteins were purified and activities were determined with a standard enzyme assay (Schmalhausen et al., 1997). Using this assay, the dehydrogenase activity of Gapdh and tGapdhs was monitored at 340 nm by measuring the accumulation of NADH.
The reaction mixture (200 μl) contained 50 mM glycine, 50 mM potassium phosphate, 5 mM EDTA (pH 8.9), 1 μg of recombinant enzyme (Gapdh or tGapdhs), 0.5 mM NAD, and 0.5 mM glyceraldehyde-3-phosphate. Activities of Gapdh and tGapdh were compared in the presence of various concentrations of inhibitors. Compounds identified as potential inhibitors in modeling studies as described herein were obtained from Ryan Scientific (Mt. Pleasant, S.C., United States of America). Stocks for each compound were prepared by dissolving 5 mg in 50 μl of DMSO. These stocks were divided into 10 μl aliquots and frozen at −20° C.
To monitor inhibition, each compound (1 μM to 3 mM) was added to the above reaction mixture (without NAD and glyceraldehyde-3-phosphate) and incubated for 1 hour at 4° C. After the 1 hour incubation period, NAD and glyceraldehyde-3-phosphate were added to start the reaction. In each assay, controls containing equal amounts of DMSO were included to determine values for 100% activity. The IC50 for each compound was calculated as the concentration required to reduce dehydrogenase activity to 50% of the activity of control samples.

[3] = target: T3, truncated Gapdhs (tGapdhs; amino acids 106-438 of mouse Gapdhs) (Mus musculus, UniProt Q64467); experiment: Inhibition of recombinant tGapdhs by adenine nucleotides (NAD reduction at 340 nm, 96-well format); conditions: for inhibition of tGapdhs: recombinant enzyme, result in words
T3 construct: containing amino acids 106-438 of mouse Gapdhs; GST (cleaved yes); made in house
T3 sequence (Q64467 108-440): as the sequence (Q64467 108-440) above

Recombinant mouse Gapdh = target: T4, Recombinant mouse Gapdh (Mus musculus, UniProt P16858); experiment: Inhibition of recombinant Gapdh by adenine nucleotides (NAD reduction at 340 nm, 96-well format); conditions: for inhibition of Gapdhs (the other recombinant enzyme beside tGapdhs): result in words
T4 construct: GST (cleaved yes); made in house
T4 sequence (P16858 whole entry): as the sequence (P16858 whole entry) above

[4] = Table 9, 1 hour preincubation at 4° C., 0.5 mM NAD, 0.5 mM glyceraldehyde-3-phosphate, read-out: IC50 GAPDHS
[5] = competitive inhibitors of NAD cofactor binding, read-out: calculated Ki for tGapdhs
[6] = competitive inhibitors of NAD cofactor binding, read-out: calculated Ki for Gapdh
[7] = Table 7, 1 hour preincubation at 4° C., 0.5 mM NAD, 0.5 mM glyceraldehyde-3-phosphate, read-out: IC50 GAPDHS
[8] = Table 11, 1 hour preincubation at 4° C., 0.5 mM NAD, 0.5 mM glyceraldehyde-3-phosphate, read-out: IC50 GAPDHS

Compound: 3-(1H-Imidazolo-4-yl)-2-[3-(4-sulfamoyl-benzyl)-thioureido]-propionic acid [LT_00729760]
IC50 [1, 4]: 2 mM

Compound: 4-(1-Benzyl-IH-indol-3y1)-3,4-dihydro-benzo[4,5]imidazo[1,2-a][1,3,5]triazin-2-ylamine [Compound T0501_7933]
IC50 [1, 4]: 0.01 to 0.025 mM
selective inhibition: Gapdhs compared to Gapdh [2]: greater inhibition of Gapdhs than Gapdh
IC50 (recombinant human GAPDH; Table 9): > 500 µM

Compound: 4-Amino-N-(4-methoxy-phenyl)-3-nitro-benzenesulfonamide-cyclohexyl-urea [Compound T0506_9350]
IC50 (recombinant human GAPDH; Table 9): > 1000 µM

Compound: Nc1ncnc2c1ncn2[C@@H]1O[C@H](COP(=O)(O)OP(=O)(O)O)[C@@H](O)[C@H]1O [ADP]
Ki [3, 5]: 3.97 mM
inhibition of tGapdhs [3]: dose-dependent inhibition
Ki (Recombinant mouse Gapdh; [6]): 1.79 mM
inhibition of Gapdhs (the other recombinant enzyme beside tGapdhs) (Recombinant mouse Gapdh): dose-dependent inhibition

Compound: Nc1ncnc2c1ncn2[C@@H]1O[C@H](COP(=O)(O)O)[C@@H](O)[C@H]1O [AMP]
Ki [3, 5]: 3.13 mM
inhibition of tGapdhs [3]: dose-dependent inhibition
Ki (Recombinant mouse Gapdh; [6]): 1.61 mM
inhibition of Gapdhs (the other recombinant enzyme beside tGapdhs) (Recombinant mouse Gapdh): dose-dependent inhibition

Compound: Nc1ncnc2c1ncn2[C@@H]1O[C@H](COP(=O)(O)OP(=O)(O)OP(=O)(O)O)[C@@H](O)[C@H]1O [ATP, adenosine triphosphate]
Ki [3, 5]: 6.48 mM
Ki (Recombinant mouse Gapdh; [6]): 1.27 mM
inhibition of Gapdhs (the other recombinant enzyme beside tGapdhs) (Recombinant mouse Gapdh): dose-dependent inhibition

Compound: Clc1ccc(N=c2ssnc2Cl)c(Cl)c1 [Compound 11K_064, 2,4-dichloro-N-(4chloro-5H-1,2,3-dithiazol-5-yliden)aniline]
IC50 [1, 7]: 0.5 mM
IC50 (recombinant human GAPDH; Table 7): 100 µM

Compound: Cc1ccc(S(=O)(=O)c2c(N)n(CC(O)c3ccc([N+](=O)[O-])cc3)c3nc4ccccc4nc23)cc1 (stereo not drawn) [Compound T0501_7749, 2-[2-Amino-3-(toluene-4-sulfonyl)-pyrrolo[2,3-b]quinoxalin-1-yl]-1-(4-nitro-phenyl)-ethanol]
IC50 [1, 7]: 0.1 mM
selective inhibition: Gapdhs compared to Gapdh [2]: greater inhibition of Gapdhs than Gapdh
IC50 (recombinant human GAPDH; Table 7): > 1000 µM

Compound: OCc1nc2ccccc2[nH]1 [Compound T0504_1251, (1H-Benzoimidazol-2-yl)-methanol]
IC50 [1, 7]: > 3 mM

Compound: O=C(NNc1ccc(S(=O)(=O)Nc2ccccc2)cc1[N+](=O)[O-])Nc1cccc(C(F)(F)F)c1 [Compound T0506_1274, 2-[4-(anilinosulfonyl)-2-nitrophenyl]-N-[3-(trifluoromethyl)phenyl]hydrazinecarboxamide]
IC50 [1, 4]: 1.75 mM

Compound: O=[N+]([O-])c1ccc2oc3ccccc3c2c1 [Compound T0515_4928, 2-Nitro-dibenzofuran]
IC50 [1, 8]: 0.1 mM
selective inhibition: Gapdhs compared to Gapdh [2]: greater inhibition of Gapdhs than Gapdh

Compound: C=CC(=O)NCNC(=O)C=C [LT_00050115, N-(Acryloylamino-methyl)-acrylamide]
IC50 [1]: > 1 mM
IC50 (recombinant human GAPDH; Table 11): > 1000 µM

Compound: CC1=NN(C(N)=N[N+](=O)[O-])C(=O)C1 [LT_00249157, 3-methyl-5-oxo-pyrazole-1-nitro-carboxamidine]
IC50 [1, 7]: 0.1 mM
selective inhibition: Gapdhs compared to Gapdh [2]: greater inhibition of Gapdhs than Gapdh

Compound: O=c1ccn([C@@H]2O[C@H](COP(=O)(O)OP(=O)(O)OP(=O)(O)O)[C@@H](O)[C@H]2O)c(=O)[nH]1 [UTP]
inhibition of tGapdhs [3]: did not inhibit
inhibition of Gapdhs (the other recombinant enzyme beside tGapdhs) (Recombinant mouse Gapdh): did not inhibit

Compound: Nc1ncnc2c1ncn2[C@@H]1O[C@@H]2COP(=O)(O)O[C@H]2[C@H]1O [cAMP, cyclic AMP]
Ki [3]: 3.33 mM
inhibition of tGapdhs [3]: dose-dependent inhibition
Ki (Recombinant mouse Gapdh): 1.5 mM
inhibition of Gapdhs (the other recombinant enzyme beside tGapdhs) (Recombinant mouse Gapdh): dose-dependent inhibition

The remaining lines, values ahead:

IC50 [1, 7]: > 1 mM
IC50 (recombinant human GAPDH; Table 7): > 1000 µM
Compound: C=Cn1cncc1C(=O)C(F)(F)F [Compound T0507_5482, 2,2,2-Trifluoro-1-(3vinyl-3H-imidazol-4-yl)-ethanone]

IC50 [1, 7]: 0.5 mM
selective inhibition: Gapdhs compared to Gapdh [2]: greater inhibition of Gapdhs than Gapdh
IC50 (recombinant human GAPDH; Table 7): > 1000 µM
Compound: O=C(COC(=O)CCc1c[nH]c2ccccc12)Nc1ccc(S(=O)(=O)N2CCOCC2)cc1 [Compound T0511_4909, 3-(1H-Indol-3-yl)-propionic acid [4-(morpholine-4-sulfonyl)-phenylcaramoyl]-methyl ester]

IC50 [1, 8]: > 1 mM
IC50 (recombinant human GAPDH; Table 11): > 1000 µM
Compound: CNc1cc([N+](=O)[O-])ccc1OC [Compound T0512_4753, (2-Methoxy-5-nitro-phenyl)-methyl-amine]

IC50 [1, 4]: > 1 mM
IC50 (recombinant human GAPDH; Table 9): > 1000 µM
Compound: CCOC(=O)Cc1nnc2c(Nc3ccc(OC)cc3)nc3nonc3n12 [LT00105955, [5-(4-Methoxy-phenylamino)-2-oxa-1,3,4,6,7,8a-hexaaza-as-indacen-8-yl]-acetic acid ethyl ester]

IC50 [1, 7]: > 1 mM
IC50 (recombinant human GAPDH; Table 7): 350 µM
Compound: CN(C)c1ccc(C(CC(=O)c2c(O)c3ccccc3n(C)c2=O)NCc2ccncc2)cc1 (stereo not drawn) [LT_00232244, 3-{3-(4-Dimethylamino-phenyl)-3-[(pyridine-4-ylmethyl)-amino]-propionyl}-4-hydroxy-1-methyl-1H-quinolin-2-one]

IC50 [1, 4]: 2 mM
Compound: Nc1nonc1-c1nc2ccccc2n1CC(=O)N/N=C\c1cc2c(cc1[N+](=O)[O-])OCO2 [LT_00237350, [2-(4-Aminofurazan-3-yl)-benzoimidazol-1-yl]-acetic acid [1-(6-nitro-benzo[1,3]dioxol-5-yl)-meth-(Z)ylidene]-hydrazide]

IC50 [1, 4]: > 1 mM
Compound: O=C(CN1C(=O)c2ccccc2C1=O)Nc1cc(C(=O)O)cc(C(=O)O)c1 [LT_00379844, 5-[2-(1,3-Dioxo-1,3-dihydro-isoindol-2-yl)-acetylamino]-isophthalic acid]

IC50 [1, 4]: 0.15 mM
IC50 (recombinant human GAPDH; Table 9): 150 µM
Compound: COc1cc(C=NNC(=O)Cn2cnc3c(=O)n(C)c(=O)n(C)c32)cc([N+](=O)[O-])c1O [LT_00444480, (1,3-Dimethyl-2,6-dioxo-1,2,3,6-tetrahydro-purin-9-yl)-acetic acid (4-hydroxy-3-methoxy-5-nitro-benzylidene)-hydrazide]

IC50 [1, 4]: 5 mM
Compound: CC(CC(=O)Nc1ccc(Cl)c(Cl)c1)=NNC(=O)c1cc2ccccc2cc1O [LT_00587256, N-(3,4-Dichloro-phenyl)-3-[(3-hydroxy-naphthalene-2-carbonyl)-hyrazono]-butyramide]

IC50 GAPDHS ([1]; Table 9, 1 hour preincubation at 4° C., 0.5 mM NAD, 0.5 mM glyceraldehyde-3-phosphate): not soluble
Compound: COc1cc(C=NNc2ccc([N+](=O)[O-])cc2[N+](=O)[O-])ccc1OCC(=O)Nc1ccc(C)c(C)c1 [LT_01178124, N-(3,4-Dimethyl-phenyl)-2-{4-[(2,4-dinitro-phenyl)-hydrazonomethyl]-2-methoxy}-acetamide]

inhibition of tGapdhs [3]: did not inhibit
inhibition of Gapdhs (the other recombinant enzyme beside tGapdhs) (Recombinant mouse Gapdh): did not inhibit
Compound: Nc1ncnc2c1ncn2[C@@H]1O[C@H](CO)[C@@H](O)[C@H]1O [adenosine]
